Like-named read-outs stand apart in the source and are kept apart here. Non-standard residues stand in square brackets, D forms with d. Residues, ends and D or L forms follow the SMILES beside them. *: point of attachment. hTyr = N[C@@H](CCc1ccc(O)cc1)C(=O)O; Aad = N[C@@H](CCCC(=O)O)C(=O)O; NHPhenethyl = c1ccc(CCN*)cc1
Experiments:
Format in all cases: biochemical
[1] = target: T1, porcine pancreatic elastase (Sus scrofa, UniProt P00772); test: Inhibition of porcine pancreatic elastase (MeOSuc-AAA-pNA hydrolysis); conditions: for hNE/PPE selectivity: ratio of PPE IC50 to hNE IC50
T1 construct: purchased Sigma, USA
T1 sequence (P00772 27-266): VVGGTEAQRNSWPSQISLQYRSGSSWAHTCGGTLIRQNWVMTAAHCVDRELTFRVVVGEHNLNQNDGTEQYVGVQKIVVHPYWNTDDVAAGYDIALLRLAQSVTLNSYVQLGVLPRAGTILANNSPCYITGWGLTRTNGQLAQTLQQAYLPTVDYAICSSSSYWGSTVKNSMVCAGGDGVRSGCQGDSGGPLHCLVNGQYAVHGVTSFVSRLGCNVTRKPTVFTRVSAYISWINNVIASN
Experimental: 2.3. Inhibition of Porcine Pancreatic Elastase
The ability of the peptides of the invention to inhibit the hydrolysis activity of porcine pancreatic elastase (Sigma, USA) using the synthetic tripeptidic substrate MeOSuc-AAA-pNA (Bachem, Switzerland) was determined as follows:
(§1) The above substrate (1 mM) and […] porcine pancreatic elastase (15 nM) were incubated at 37° C. with serial dilutions of the peptides (0.5% DMSO final) in assay buffer (50 mM Tris, pH8, 100 mM NaCl, 0.01% Tween20). The release of pNA was followed by monitoring the change in absorbance at 405 nm for 30 minutes. Control assays with the same assay set-up as above, but without peptide, ran linearly. The dose-response data were fitted to the 4-parameter Hill equation providing the IC50 value using Graphpad (Prism 5).

human proteinase 3 = target: T2, human proteinase 3 (Homo sapiens, UniProt P24158); test: Inhibition of human proteinase 3 (Boc-Ala-Ala-Nva-SBzl); conditions: for hNE/hPr3 selectivity: ratio of hPr3 IC50 to hNE IC50
T2 construct: purchased Elastin Products Company, USA
T2 sequence (P24158 28-248): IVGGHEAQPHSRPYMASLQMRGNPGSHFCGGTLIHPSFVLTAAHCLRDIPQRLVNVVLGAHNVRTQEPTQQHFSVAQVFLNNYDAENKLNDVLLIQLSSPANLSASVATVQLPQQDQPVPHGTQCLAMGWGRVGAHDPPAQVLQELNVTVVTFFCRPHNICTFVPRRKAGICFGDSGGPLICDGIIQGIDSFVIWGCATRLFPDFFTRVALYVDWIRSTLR
Experimental: 2.4. Inhibition of Human Proteinase 3
The inactivation of human proteinase 3 (Elastin Products Company, USA) by the peptides of the invention using synthetic tripeptidic substrate Boc-Ala-Ala-Nva-SBzl (Elastin Products Company, USA) was determined as follows:
as §1, with “mM), 4,4′-dithiodipyridine (250 μM)” for “mM)”, “proteinase 3 (10” for “porcine pancreatic elastase (15”, “pH7.4, 150” for “pH8, 100”, “reaction process” for “release of pNA”, “340” for “405”

[2] = target: T3, human neutrophil elastase (Homo sapiens, UniProt P08246); test: Inhibition of human neutrophil elastase (MeOSuc-AAPV-pNA hydrolysis)
T3 construct: purchased Serva Electrophoresis, Germany
T3 sequence (P08246 30-267): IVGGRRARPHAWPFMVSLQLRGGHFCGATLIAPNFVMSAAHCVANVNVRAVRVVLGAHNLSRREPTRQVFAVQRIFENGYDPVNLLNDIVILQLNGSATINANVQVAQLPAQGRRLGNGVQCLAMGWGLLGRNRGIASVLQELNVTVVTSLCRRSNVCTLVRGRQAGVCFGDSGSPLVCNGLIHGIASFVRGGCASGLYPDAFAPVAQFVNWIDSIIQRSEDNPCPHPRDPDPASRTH
Experimental: 2.2. Inhibition of Human Neutrophil Elastase
The ability of the peptides of the invention to inhibit the hydrolysis activity of human neutrophil elastase (Serva Electrophoresis, Germany) using the synthetic tetrapeptidic substrate MeOSuc-AAPV-pNA (Bachem, Switzerland) was determined as follows:
as §1, with “(0.3” for “(1”, “neutrophil” for “porcine pancreatic”, “(10” for “(15”, “(1%” for “(0.5%”, “pH 8, 300” for “pH8, 100”

[3] = 15 nM enzyme, 1 mM substrate, 37° C., pH8, read-out: Porcine pancreatic elastase (PPE) IC50
[4] = 10 nM enzyme, 1 mM substrate, 37° C., pH7.4, read-out: Human proteinase 3 (hPr3) IC50
[5] = 10 nM enzyme, 0.3 mM substrate, 37° C., pH 8, read-out: Human neutrophil elastase (hNE) IC50

SMILES	IC50 [1, 3] [µM]	hNE/PPE selectivity [1]	IC50 (human proteinase 3; [4]) [µM]	hNE/hPr3 selectivity (human proteinase 3)	IC50 [2, 5] [µM]	IC50 [1] [µM]	IC50 (human proteinase 3) [µM]	IC50 [2] [µM]
CC[C@H](C)[C@@H]1NC(=O)[C@H](CO)NC(=O)[C@H](C)NC(=O)[C@H]([C@@H](C)O)NC(=O)[C@H](CCC(=O)O)NC(=O)[C@H](CCCNC(=N)N)NC(=O)[C@@H]2CCCN2C(=O)[C@H]2CCCN2C(=O)[C@H]([C@@H](C)O)NC(=O)[C@H](CCCCN)NC(=O)[C@H](CCC(N)=O)NC(=O)[C@@H]2CCCN2C(=O)[C@@H]2CCCN2C1=O [Example 11, Cyclo(-Arg-Glu-Thr-Ala-Ser-Ile-Pro-Pro-Gln-Lys-Thr-^DPro-Pro-)] (cyclo(RETASIPPQKT[dP]P))	> 100	>8000	> 100	>8000	0.0125			
CC[C@H](C)[C@@H]1NC(=O)[C@H](CO)NC(=O)[C@H](C)NC(=O)[C@H]([C@@H](C)O)NC(=O)[C@H](CCC(=O)O)NC(=O)[C@H](CCCNC(=N)N)NC(=O)[C@@H]2CCCN2C(=O)[C@H]2CCCN2C(=O)[C@H](CCCC(N)=O)NC(=O)[C@H](CCCCN)NC(=O)[C@H](Cc2ccc(O)cc2)NC(=O)[C@@H]2CCCN2C(=O)[C@@H]2CCCN2C1=O [Example 12, Cyclo(-Arg-Glu-Thr-Ala-Ser-Ile-Pro-Pro-Tyr-Lys-hGln-^DPro-Pro-)] (cyclo(RETASIPPYK[Aad](NH2)[dP]P))	> 100	>10000	> 100	>10000	0.01			
CC[C@H](C)[C@@H]1NC(=O)[C@H](CO)NC(=O)[C@H](C)NC(=O)[C@H]([C@@H](C)O)NC(=O)[C@H](CCC(=O)O)NC(=O)[C@H](CCCNC(=N)N)NC(=O)[C@@H]2CCCN2C(=O)[C@H]2CCCN2C(=O)[C@H]([C@@H](C)O)NC(=O)[C@H](CCCCN)NC(=O)[C@H](Cc2ccc(O)cc2)NC(=O)[C@@H]2CCCN2C(=O)[C@@H]2CCCN2C1=O [Example 13, Cyclo(-Arg-Glu-Thr-Ala-Ser-Ile-Pro-Pro-Tyr-Lys-Thr-^DPro-Pro-)] (cyclo(RETASIPPYKT[dP]P))	> 100	>3268	> 100	>3268	0.0306			
CC[C@H](C)[C@@H]1NC(=O)[C@H](CO)NC(=O)[C@H](C)NC(=O)[C@H]([C@@H](C)O)NC(=O)[C@H](CCC(=O)O)NC(=O)[C@H](CCC(=O)NCCc2ccccc2)NC(=O)[C@@H]2CCCN2C(=O)[C@H]2CCCN2C(=O)[C@H](Cc2ccc(O)cc2)NC(=O)[C@H](CCCCN)NC(=O)[C@H](CCC(N)=O)NC(=O)[C@@H]2CCCN2C(=O)[C@@H]2CCCN2C1=O [Example 15, Cyclo(-Glu(Phenethyl)-Glu-Thr-Ala-Ser-Ile-Pro-Pro-Gln-Lys-Tyr-^DPro-Pro-)] (cyclo(E(NHPhenethyl)ETASIPPQKY[dP]P))		87		360		1.62	6.69	0.0186
CC[C@H](C)[C@@H]1NC(=O)[C@H](CO)NC(=O)[C@H](C)NC(=O)[C@H]([C@@H](C)O)NC(=O)[C@H](C(C)C)NC(=O)[C@H](CCCNC(=N)N)NC(=O)[C@@H]2CCCN2C(=O)[C@H]2CCCN2C(=O)[C@H]([C@@H](C)O)NC(=O)[C@H](CCCCN)NC(=O)[C@H](CCC(N)=O)NC(=O)[C@@H]2CCCN2C(=O)[C@@H]2CCCN2C1=O [Example 16, Cyclo(-Arg-Val-Thr-Ala-Ser-Ile-Pro-Pro-Gln-Lys-Thr-^DPro-Pro-)] (cyclo(RVTASIPPQKT[dP]P))	> 100	>3788	> 100	>3788	0.0264			
CC[C@H](C)[C@@H]1NC(=O)[C@H](CO)NC(=O)[C@H](C)NC(=O)[C@H]([C@@H](C)O)NC(=O)[C@H](CCc2ccc(O)cc2)NC(=O)[C@H](CCCNC(=N)N)NC(=O)[C@@H]2CCCN2C(=O)[C@H]2CCCN2C(=O)[C@H]([C@@H](C)O)NC(=O)[C@H](CCCCN)NC(=O)[C@H](CCC(N)=O)NC(=O)[C@@H]2CCCN2C(=O)[C@@H]2CCCN2C1=O [Example 17, Cyclo(-Arg-hTyr-Thr-Ala-Ser-Ile-Pro-Pro-Gln-Lys-Thr-^DPro-Pro-)] (cyclo(R[hTyr]TASIPPQKT[dP]P))	66.4	4256	83.9	5378	0.0156			

Further compounds by falling IC50 [1, 3], results first:

IC50 [1, 3] [µM]	hNE/PPE selectivity [1]	IC50 (human proteinase 3; [4]) [µM]	hNE/hPr3 selectivity (human proteinase 3)	IC50 [2, 5] [µM]	SMILES	IC50 [1] [µM]	IC50 (human proteinase 3) [µM]	IC50 [2] [µM]
7.2	1043	1.8	261	0.0069	CC[C@H](C)[C@@H]1NC(=O)[C@H](CO)NC(=O)[C@H](C)NC(=O)[C@H]([C@@H](C)O)NC(=O)[C@H](C(C)C)NC(=O)[C@H](CCCNC(=N)N)NC(=O)[C@@H]2CCCN2C(=O)[C@H]2CCCN2C(=O)[C@H](Cc2ccc(O)cc2)NC(=O)[C@H](CCCCN)NC(=O)[C@H](CCC(N)=O)NC(=O)[C@@H]2CCCN2C(=O)[C@@H]2CCCN2C1=O [Example 18, Cyclo(-Arg-Val-Thr-Ala-Ser-Ile-Pro-Pro-Gln-Lys-Tyr-^DPro-Pro-)] (cyclo(RVTASIPPQKY[dP]P))			
4.65	229	77.6	3823	0.0203	CC[C@H](C)[C@@H]1NC(=O)[C@H](CO)NC(=O)[C@H](C)NC(=O)[C@H]([C@@H](C)O)NC(=O)[C@H](CCC(=O)O)NC(=O)[C@H](CCCNC(=N)N)NC(=O)[C@@H]2CCCN2C(=O)[C@H]2CCCN2C(=O)[C@H](Cc2c[nH]cn2)NC(=O)[C@H](CCCCN)NC(=O)[C@H](Cc2ccc(O)cc2)NC(=O)[C@@H]2CCCN2C(=O)[C@@H]2CCCN2C1=O [Example 14, Cyclo(-Arg-Glu-Thr-Ala-Ser-Ile-Pro-Pro-Tyr-Lys-His-^DPro-Pro-)] (cyclo(RETASIPPYKH[dP]P))			
